From patent US20100120715A1, “BETA-LACTAMASE INHIBITORS” (priority 2007, published 2010) come the findings set out here.

Each structure is given as a SMILES string. Read-outs that look alike come from different tables or passages of the source. Bounds are passed on as bounds.

As a reminder, the IC50 is the concentration that gives 50% inhibition.

In test [1] the test system is K. pneumoniae expressing the Class A carbapenemase KPC-2. Put plainly: microbe, parasite or virus in culture. The settings on record: in the presence of fixed 8 μg/mL Ceftazidime. The text has this: (§1) To determine the ability of test compounds to potentiate the inhibition of the growth of bacterial strains producing beta-lactamase enzymes, classic cell based screening assays were employed. Four bacteria strains producing beta-lactamase enzymes were used: K. pneumoniae expressing the Class A Extended Spectrum Beta-Lactamase (ESBL) CTX-M-15, E. coli expressing the Class A ESBL SHV-5, E. cloacae expressing the Class C P99+, and K. pneumoniae expressing the Class A carbapenemase KPC-2. In order to evaluate the ability of test compounds to inhibit beta-lactamase activity, Applicants used a modification of the broth microdilution assay. The assay was conducted in Cation Adjusted Mueller Hinton Broth (CAMHB, BD # 212322, BD Diagnostic Systems, Sparks, Md.). Bacteria strains were grown for 3-5 hours in CAMBH broth. All four strains were grown in presence of 50 μg/mL ampicillin to ensure resistance is maintained. In the meantime, test compounds were diluted in DMSO to a 0.1 mg/mL stock. The compounds were added to a microtiter plate and were diluted in 2-fold serial dilutions in CAMHB in a final concentration range of 8 μg/mL to 0.015 μg/ml. An overlay of CAMHB containing a cephalosporin was added to the compounds at a final static concentration of 8 μg/ml. […] Each of these compound plates are made in quadruplicate, one for each bacteria strain. In addition to the titration of test compounds the MICs of a panel of cephalosporins is also tested to ensure the strains are behaving consistently from test to test. Once the test compound and cephalosporin are added the plates can be inoculated. Inocula are conducted according to CLSI broth microdilution method. After inoculation the plates are incubated for 16-20 hours at 37° C. then the Minimal Inhibitory Concentration (MIC) of the test compound is determined visually.

The next test has as its target T1, Class A ESBL CTXM-15 (Escherichia coli, UniProt Q9EXV5).
T1 construct: made in house; host or cells: E. coli BL21(DE3)
Put plainly: β-lactamase enzyme inhibition (nitrocefin hydrolysis), CTXM-15. The settings on record: purified enzyme; nitrocefin 100 μM, PBS pH 7.0; read-out: CTXM-15 IC50 Range. Format: biochemical. As for the experimental part: (§2) Isolation of β-lactamases. For all examples, purified beta-lactamase enzymes were used to measure a compounds' ability to inhibit the Class A ESBL CTXM-15, the Class C P99 AmpC and the Class A carbapenemase KPC-2. […] The enzyme preparations are described herein.
(§3) For the isolation and purification of SHV-5, p99 AmpC, KPC-2 and CTX-M15 β-lactamases, E. coli BL21(DE3) bacterial cells carrying expression plasmids (expressed as native untagged proteins) for the individual β-lactamases were grown in 1 L of Superbroth (Teknova Inc. Hollister, Calif.) supplemented with 100 μg/ml kanamycin and 1×5052 (0.5% glycerol, 0.05% glucose and 0.2% α-lactose) at 35° C. for 18-20 hours. Cells were harvested by centrifugation (4,000×g, 4° C., 20 min), and resuspended in 50 ml of 10 mM HEPES pH 7.5 ( 1/20 of the initial volume). The cells were lysed by sonication (5 pulses of 45 seconds) at 45 W on ice. The lysates were clarified by centrifugation at 10,000×g for 40 minutes at 4° C. Samples were diluted 5-fold in 50 mM sodium acetate pH 5.0, stored overnight at 4° C., after which they were centrifuged at 10,000×g for 30 minutes to clarify, and filtered through 0.45 μm filters. The samples were loaded onto a 5 ml Capto S sepharose cation exchange column (GE Healthcare) pre-equilibrated with 50 mM sodium acetate pH 5.0. The column was washed with 5 column volumes of 50 mM sodium acetate pH 5.0 to wash out unbound protein and a linear gradient of NaCl (0 to 500 mM) was used to elute the protein (over 16 CV) from the column. Fractions were assayed for β-lactamase activity using Centa (Calbiochem, Gibbstown, N.J.) as a reporter β-lactamase substrate for activity in the isolated fractions. Active fractions were pooled, concentrated and further purified by gel filtration chromatography on a Superdex 75 prep grade gel filtration column (GE Healthcare, Piscataway, N.J.) pre-equilibrated in 50 mM Hepes pH 7.5, 150 mM NaCl. Active fractions were pooled concentrated, quantitated by BCA protein determination (Thermo Scientific, Rockford, Ill.), and frozen at −80° C. in 20% glycerol until use.
(§4) β-lactamase Inhibition. To determine the level of inhibition of β-lactamaseenzymes, compounds were diluted in PBS at pH 7.0 to yield concentrations between 100 and 0.005 μM in microtiter plates. An equal volume of diluted enzyme stock was added, and the plates were incubated at 37° C. for 10 min. Nitrocefin solution was then dispensed as substrate into each well at a final concentration of 100 μM, and the plates were immediately read with the kinetic program at 486 nm for 10 min on the SPECTRAMAX® Plus^384 (high-throughput microplate spectrophotometer; Molecular Devices Corp., Sunnyvale, Calif.). Maximum rates of metabolism were then compared to those in control wells (without inhibitors), and percentages of enzyme inhibition were calculated for each concentration of inhibitor. The concentration of inhibitor needed to reduce the initial rate of hydrolysis of substrate by 50% (IC50) was calculated as the residual activity of β-lactamase at 486 nm using the SoftMax Pro 5.0 software (Molecular Devices Corp.).

A further test addresses T2, Class A ESBL SHV-5 (Klebsiella pneumoniae, UniProt P0A3M1).
T2 construct: made in house; host or cells: E. coli BL21(DE3) for purified enzyme; E. coli cells containing SHV-5 for extracts
Format: biochemical, E. coli. The settings on record: nitrocefin 100 μM, PBS pH 7.0, read-out: SHV-5 IC50 Range. As for the experimental part:
as §2
For the preparation of SHV-5 extracts, E. coli cells containing SHV-5 were cultured overnight with shaking at a volume of 20 mL. They were further diluted 10-fold and grown to mid-log phase (OD at 600 nm, 0.5-0.8) in Mueller-Hinton II (MH-II) broth at 37° C. The cells were pelleted at 5000 g, washed and resuspended in 2 mL PBS pH 7.0. The β-lactamase was extracted by four cycles of freezing and thawing followed by centrifugation. β-lactamase activity in the extract was measured with the chromogenic cephalosporin nitrocefin. The amount of protein in each β-lactamase preparation was determined by the bicinchoninic acid (BCA) assay.
as §3, §4

Test [2] relates to K. pneumoniae expressing the Class A ESBL CTX-M-15. Put plainly: microbe, parasite or virus in culture. Format: cell-based. The conditions noted are these: in the presence of fixed 8 μg/mL Ceftazidime.
Source text: as §1, with “An overlay of CAMHB containing a cephalosporin was added to the compounds at a final static concentration of 8 μg/ml.” left out

In the next test the target is T3, Class C P99 AmpC (Enterobacter cloacae, UniProt P05364).
T3 construct: made in house; host or cells: E. coli BL21(DE3)
In kind it is biochemical. The settings on record: purified enzyme; nitrocefin 100 μM, PBS pH 7.0; read-out: P99 AmpC IC50 Range. As for the experimental part:
as §2, §3, §4

Test [3] has as its target T4, Class A carbapenemase KPC-2 (Klebsiella pneumoniae, UniProt Q9F663).
T4 construct: made in house; host or cells: E. coli BL21(DE3)
Put plainly: β-lactamase enzyme inhibition (nitrocefin hydrolysis), KPC-2. In kind it is biochemical. The conditions noted are these: purified enzyme; nitrocefin 100 μM, PBS pH 7.0; read-out: KPC-2 IC50 Range. As for the experimental part: as §2, §3, §4

Where [4] appears, read: cellular extracts of E. coli containing SHV-5 (Examples 2-30).
Where [5] appears, read: purified beta-lactamase enzyme (Examples 1 and 31-64).

T3 sequence (P05364 21-381): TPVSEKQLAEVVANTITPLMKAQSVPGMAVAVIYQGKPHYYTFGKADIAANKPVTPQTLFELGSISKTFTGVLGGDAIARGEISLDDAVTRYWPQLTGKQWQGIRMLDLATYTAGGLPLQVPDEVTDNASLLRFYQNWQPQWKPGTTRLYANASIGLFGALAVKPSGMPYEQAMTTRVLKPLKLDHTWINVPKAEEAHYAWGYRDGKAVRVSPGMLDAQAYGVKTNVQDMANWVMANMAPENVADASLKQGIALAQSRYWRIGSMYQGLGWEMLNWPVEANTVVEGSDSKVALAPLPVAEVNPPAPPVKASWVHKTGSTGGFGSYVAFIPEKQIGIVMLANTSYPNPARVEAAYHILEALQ
T2 sequence (P0A3M1 22-286): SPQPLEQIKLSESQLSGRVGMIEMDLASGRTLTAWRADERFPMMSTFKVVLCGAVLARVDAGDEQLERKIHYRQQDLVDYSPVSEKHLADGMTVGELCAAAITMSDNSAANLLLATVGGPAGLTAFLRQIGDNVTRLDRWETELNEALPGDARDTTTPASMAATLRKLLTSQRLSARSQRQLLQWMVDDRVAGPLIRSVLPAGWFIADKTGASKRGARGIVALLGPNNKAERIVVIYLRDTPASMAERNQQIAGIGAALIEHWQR
T1 sequence (Q9EXV5 entry or part of it): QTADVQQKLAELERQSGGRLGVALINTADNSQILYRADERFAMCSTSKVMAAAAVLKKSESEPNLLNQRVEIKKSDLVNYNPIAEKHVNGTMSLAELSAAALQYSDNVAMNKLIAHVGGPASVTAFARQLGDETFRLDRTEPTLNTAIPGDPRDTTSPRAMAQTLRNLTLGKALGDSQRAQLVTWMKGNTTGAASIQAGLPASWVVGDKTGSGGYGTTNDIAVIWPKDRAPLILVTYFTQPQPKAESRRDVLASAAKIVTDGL
T4 sequence (Q9F663 25-293 limits assumed): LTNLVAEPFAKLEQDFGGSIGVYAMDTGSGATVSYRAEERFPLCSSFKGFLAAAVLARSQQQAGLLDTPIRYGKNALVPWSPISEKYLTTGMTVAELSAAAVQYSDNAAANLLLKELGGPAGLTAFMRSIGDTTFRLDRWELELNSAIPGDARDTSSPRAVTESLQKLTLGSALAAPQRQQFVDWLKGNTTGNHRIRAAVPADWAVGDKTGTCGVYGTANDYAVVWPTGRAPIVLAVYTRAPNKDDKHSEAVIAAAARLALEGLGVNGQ

With `N[C@H](C(=O)N[C@@H](Cc1cccc(C(=O)O)c1O)B(O)O)c1ccccc1.O=CO` [Example 12, (1R,2′S)-1-(2-amino-2-phenylacetylamino)-2-(2-hydroxy-3-carboxyphenyl)ethyl-1-boronic acid formate salt], the “MIC of example compound, K. pneumoniae KPC-2 + 8 μg/mL CAZ” value (“MIC … K. pneumoniae KPC-2 + 8 μg/mL CAZ” for short) in test [1] was “C (C represents an MIC of <1 μg/mL)”. The IC50 was in the range of 10 to 100 nM on Class A ESBL CTXM-15, 100 to 1000 nM at Class A ESBL SHV-5 (setting [4]) and 100 to 1000 nM on Class C P99 AmpC. Also, in test [2], the “MIC of example compound, K. pneumoniae CTX-M-15 + 8 μg/mL CAZ” value (from here on “MIC … K. pneumoniae CTX-M-15 + 8 μg/mL CAZ”) is given as “C (C represents an MIC of <1 μg/mL)”.

As to `O=C(N[C@@H](Cc1cccc(C(=O)O)c1O)B(O)O)c1cccnc1` [Example 51, (1R)-1-(Nicotinoylamino)-2-(2-hydroxy-3-carboxyphenyl)ethyl-1-boronic acid], the IC50 in test [3] was less than 10 nM; at Class A ESBL CTXM-15 it was less than 10 nM; at Class A ESBL SHV-5 (setting [5]) it was 10 to 100 nM; at Class C P99 AmpC it was less than 10 nM. Further, the “MIC … K. pneumoniae KPC-2 + 8 μg/mL CAZ” value in test [1] is recorded as “C (C represents an MIC of <1 μg/mL)”. Besides, the “MIC … K. pneumoniae CTX-M-15 + 8 μg/mL CAZ” value in test [2] is listed as “C (C represents an MIC of <1 μg/mL)”.

For the compound `CC(C)(C)CC(=O)N[C@@H](Cc1cccc(C(=O)O)c1O)B(O)O` [Example 25, (1R)-1-(3,3-Dimethyl-butyrylamino)-(3-carboxy-2-hydroxy)benzyl-methylboronic acid], the IC50 (in test [3]; on Class A ESBL CTXM-15; at Class A ESBL SHV-5 (setting [4]); on Class C P99 AmpC) was 10 to 100 nM throughout. Further, the “MIC … K. pneumoniae KPC-2 + 8 μg/mL CAZ” value in test [1] is “C (C represents an MIC of <1 μg/mL)”. Also, the “MIC … K. pneumoniae CTX-M-15 + 8 μg/mL CAZ” value in test [2] is listed as “C (C represents an MIC of <1 μg/mL)”.

In the case of `O=C(CNC(=O)c1ccccc1)N[C@@H](Cc1cccc(C(=O)O)c1O)B(O)O` [Example 50, (1R)-1-(Hippuric amido)-2-(2-hydroxy-3-carboxyphenyl)ethyl-1-boronic acid], the IC50 (in test [3]; at Class A ESBL CTXM-15; at Class A ESBL SHV-5 (setting [5]); on Class C P99 AmpC) was less than 10 nM each time. The “MIC … K. pneumoniae KPC-2 + 8 μg/mL CAZ” value in test [1] is reported as “C (C represents an MIC of <1 μg/mL)”. In test [2], the “MIC … K. pneumoniae CTX-M-15 + 8 μg/mL CAZ” value is given as “C (C represents an MIC of <1 μg/mL)”.

Turning to `O=C(Cc1cccc(O)c1)N[C@@H](Cc1cccc(C(=O)O)c1O)B(O)O` [Example 3, (1R)-1-(3-hydroxy-phenyl)acetylamino-1-(3-carboxy-2-hydroxy)benzyl-methyl boronic acid], in test [1], the “MIC … K. pneumoniae KPC-2 + 8 μg/mL CAZ” value is on record as “C (C represents an MIC of <1 μg/mL)”. Further, the IC50 at Class A ESBL CTXM-15, at Class A ESBL SHV-5 (setting [4]) and at Class C P99 AmpC was less than 10 nM each time. Also, the “MIC … K. pneumoniae CTX-M-15 + 8 μg/mL CAZ” value in test [2] was “C (C represents an MIC of <1 μg/mL)”.

Turning to `NC(=O)COc1cccc(CC(=O)N[C@@H](Cc2cccc(C(=O)O)c2O)B(O)O)c1` [Example 8, (1R)-1-[(3-carbamoylmethoxy)-phenyl]-acetylamino-(3-carboxy-2-hydroxy), benzyl-methylboronic acid], the “MIC … K. pneumoniae KPC-2 + 8 μg/mL CAZ” value in test [1] was “C (C represents an MIC of <1 μg/mL)”. For the same compound, the IC50 at Class A ESBL CTXM-15, at Class A ESBL SHV-5 (setting [4]) and at Class C P99 AmpC was less than 10 nM each time. In addition, the “MIC … K. pneumoniae CTX-M-15 + 8 μg/mL CAZ” value in test [2] was “C (C represents an MIC of <1 μg/mL)”.

For the compound `O=C(Cc1cc(O)ccc1O)N[C@@H](Cc1cccc(C(=O)O)c1O)B(O)O` [Example 18, (1R)-1-(2-(2,5-dihydroxyphenyl)acetylamino)-2-(2-hydroxy-3-carboxyphenyl)ethyl-1-boronic acid], the IC50 (in test [3]; on Class A ESBL CTXM-15; at Class A ESBL SHV-5 (setting [4]); on Class C P99 AmpC) was less than 10 nM throughout. Further, the “MIC … K. pneumoniae CTX-M-15 + 8 μg/mL CAZ” value in test [2] is on record as “C (C represents an MIC of <1 μg/mL)”.

On to `CC(=O)N[C@@H](Cc1cccc(C(=O)O)c1O)B(O)O` [Example 6, (1R)-1-(2-acetylamino)-2-(2-hydroxy-3-carboxyphenyl)ethyl-1-boronic acid], for which the “MIC … K. pneumoniae KPC-2 + 8 μg/mL CAZ” value in test [1] is on record as “C (C represents an MIC of <1 μg/mL)”. The half-maximal inhibitory concentration (IC50) at Class A ESBL CTXM-15 is less than 10 nM; on Class A ESBL SHV-5 (setting [4]) it was 100 to 1000 nM; on Class C P99 AmpC it was 10 to 100 nM. For the same compound, the “MIC … K. pneumoniae CTX-M-15 + 8 μg/mL CAZ” value in test [2] was “C (C represents an MIC of <1 μg/mL)”.
